Assay results reported in patent publication US11806344B2, “Pharmaceutical composition comprising mineralocorticoid receptor antagonist and use thereof” (priority 2016, dated 2023).
“Also recorded” adds a separate entry of the source.

How the values were obtained:
[1] = Absorption of capsules of Capsule formulation 5 in Beagle dogs (Example 3-4); type: in vivo; settings: dog, plasma; mean of four Beagle dogs, oral, 2.67 mg/kg; read-out: BA % (Mean, average bioavailability)
Experimental: Capsule of Capsule formulation 5 as prepared in Example 2, 10 mg of Compound I per capsule.
Solutions: 5% DMSO+95% (6% HP-β-CD solution)
Animals: Four Beagle Dogs.
(1) Administration of capsules. All animals fasted for 12 h or longer before drug administration, and food was supplied 4 h after drug administration, with always ad libitum access to water. Beagle dogs were orally given the capsule of Capsule formulation 5 as prepared in Example 2 (two capsules for each Beagle, 10 mg of Compound I per capsule) in a single dose, and 200 μL of blood was collected for each animal, via the small saphenous vein, immediately prior to the administration (0 h) and 0.17 h, 0.50 h, 0.75 h, 1.0 h, 2.0 h, 4.0 h, 6.0 h, 8.0 h, 12 h and 24 h after the administration. The collected blood was stored in a dry tube with heparin (normal saline containing 0.1% heparin sodium). (2) Plasma preparation. The whole blood samples collected in step (1) were subject to centrifugation at a low speed (8000 r/min, 6 min, 4° C.) to separate the plasma (the whole blood was stored in a mobile freezer at about 0 to 4° C., and plasma had to be separated within 30 minutes after the blood collection), and the plasma was kept in dark in a freezer at −70° C. (or lower) for future analysis.

[2] = test system: Dahl/ss rats with salt induced renal injury; experiment: Efficacy test in salt-sensitive rats with salt induced renal injury (Example 6); type: in vivo; settings: Dahl/ss rats on 4% NaCl diet
Experimental: Animals: Male Dahl/Ss Rats
Solid dispersions of Compound I (Compound I:PVPK30=1:8 (w/w)): Solid dispersions of Compound I was formulated with suitable amount of sterile water for injection into suspensions having concentrations of 0.03, 0.10, 0.30 and 1.00 mg/mL, respectively. The suspensions were prepared immediately before use. […]
One week before the experiment, the blood pressures were measured twice in rats by the tail-cuff blood pressure measurement so that rats could accommodate to the blood pressure monitoring operation. Then, immediately before the test, the blood pressure was determined and used as the baseline value. […]
Blood pressure (systolic blood pressure, SBP) measurement: Blood pressure was measured for 6 weeks, once a week, and the blood pressure changes in these groups were analyzed.
Pathological examination for the kidney and heart: At the end of the study, rats were sacrificed painlessly, from which bilateral kidneys and the heart were collected for histopathological analysis. The kidneys were stained using Hematoxylin-Eosin (HE) to semi-quantitatively evaluate renal injuries. The thickness of the left ventricular wall was measured for each heart to analyze the heart injury. […]

[3] = test system: patients having chronic kidney disease; experiment: Safety, tolerability and pharmacokinetics in patients having chronic kidney disease (Example 9); type: in vivo, human; settings: CKD patients; for UACR decreased: at the 8th week; for Predicated AUCtau: predicted from the 0.5 mg/day group
Excerpt: The patients in this example were those having chronic kidney disease with symptoms of renal failure, proteinuria, acute kidney injury, glomerular nephritis, renal cyst, urinary frequency, renal calculus, obstructive uropathy, and etc. These patients also had other diseases or implications such as diabetes mellitus, hyperlipidemia, hypercholesterolemia, hypertension, peripheral vascular diseases, coronary artery disease, and etc.
These patients continued to take the medications that they had prior to the present clinical trial, the medications being, for example, angiotensin converting enzyme inhibitors, such as Lisinopril, Benazepril, Enalapril, and Enalapril Maleate; angiotensin II receptor blockers, such as Valsartan and Losartan; calcium channel blockers, such as Amlodipine, and Nifedipine; diuretics, such as Furosemide; beta-receptor blockers, such as Metoprolol succinate, Metoprolol tartrate, Carvedilol, and Atenolol; and antilipemic drugs, such as Simvastatin, Atorvastatin, Fenofibrate, Pravastatin, and Rosuvastatin.
In this example, the administration dose referred to the amount of Compound I, although the pharmaceutical composition was administered. Two groups of subjects were administered once a day for 56 consecutive days at the daily doses of 0.5 mg (1 capsule for each administration, 0.5 mg of Compound I per capsule) and 2.5 mg (1 capsule for each administration, 2.5 mg of Compound I per capsule), respectively, with 6 subjects for the 0.5 mg/day dose group and also 6 for the 2.5 mg/day dose group. The capsules used here were the capsules prepared in Example 2, i.e., the capsules of Capsule formulation 3 (the capsule with 0.5 mg of Compound I), and Capsule formulation 4 (the capsule containing 2.5 mg of Compound I).
Plasma samples were collected to measure plasma drug concentration, and the pharmacokinetic parameters were analyzed using the non-compartment model. Serum samples were collected to measure serum potassium levels.

SMILES: N#Cc1ccc(N2N=C3c4ccc(C(=O)N5CCC(O)CC5)nc4CC[C@@H]3[C@@H]2C2CCCC2)cc1Cl [Compound I, 2-chloro-4-[(3S,3aR)-3-cyclopentyl-7-(4-hydroxylpiperidine-1-carbonyl)-3,3a,4,5-tetrahydro-2H-pyrazolo[3,4-f]quinolin-2-yl]benzonitrile]
- bioavailability [1]: 56.5%
- AUC0-24 at which the drug takes effect (undulation point of SBP or UACR vs AUC0-24 curve) ([2]; 0.3-10 mg/kg/day intragastric twice a day, 42 days): 100 ng·h/mL
- SBP and UACR change (observation) ([2]; beyond AUC of 100 h*ng/mL): SBP and UACR were significantly decreased
- UACR decreased ([3]; 0.5 mg/day): 58.9%
- UACR decreased ([3]; 2.5 mg/day): 50.7%
- UACR decreased compared to the baseline ([3]; administered for one day at 0.5 mg/day): ≥ 30.5%
- AUC individual variation: highest AUC vs lowest AUC subject ([3]; capsule, multiple doses 2.5 mg daily): 2.27 times
- AUC individual variation: highest AUC vs lowest AUC subject ([3]; capsules, multiple doses 0.5 mg daily): 2.14 times
- Predicated AUCtau ([3]; dose 0.1 mg): 0.1305 µg·h/mL
- Predicated AUCtau ([3]; dose 0.15 mg): 0.1958 µg·h/mL
- Predicated AUCtau ([3]; dose 0.2 mg): 0.261 µg·h/mL
- Predicated AUCtau ([3]; dose 0.25 mg): 0.3263 µg·h/mL
- Predicated AUCtau ([3]; dose 0.3 mg): 0.3915 µg·h/mL
- Predicated AUCtau ([3]; dose 1.0 mg): 1.305 µg·h/mL
- Predicated AUCtau ([3]; dose 2.0 mg): 2.61 µg·h/mL
- Predicated AUCtau ([3]; dose 2.5 mg): 3.2625 µg·h/mL
- serum potassium level (observation) ([3]; multiple doses 0.5 mg/day): no elevated serum potassium level was observed
- blood pressures and UACR (observation) ([3]; multiple doses 0.5 mg/day or 2.5 mg/day): significantly decrease in blood pressures and urine albumin-to-creatinine ratio (UACR)
- serum potassium level (observation) ([3]; multiple doses 2.5 mg/day): serum potassium levels were elevated; also recorded: mild increase of the serum potassium level was observed in one subject; also recorded: In one subject, the serum potassium level slightly increased
